ChEMBL document CHEMBL1255531, “Utilization of a nitrogen-sulfur nonbonding interaction in the design of new 2-aminothiazol-5-yl-pyrimidines as p38α MAP kinase inhibitors” (Bioorg Med Chem Lett, 2010)
≈ marks a conversion by molar mass, not a printed value. Calls of active or inactive are those of the source. The calls are words filed in the database; no cut-off is given here.

Columns and labels:
[1] = molecular target: Mitogen-activated protein kinase 14 (Homo sapiens, UniProt Q16539); assay: Inhibition of bacterially expressed activated p38alpha pre-incubated 10 mins measured after 45 mins by scintillation counting
Sequence of Mitogen-activated protein kinase 14 (Q16539 whole entry): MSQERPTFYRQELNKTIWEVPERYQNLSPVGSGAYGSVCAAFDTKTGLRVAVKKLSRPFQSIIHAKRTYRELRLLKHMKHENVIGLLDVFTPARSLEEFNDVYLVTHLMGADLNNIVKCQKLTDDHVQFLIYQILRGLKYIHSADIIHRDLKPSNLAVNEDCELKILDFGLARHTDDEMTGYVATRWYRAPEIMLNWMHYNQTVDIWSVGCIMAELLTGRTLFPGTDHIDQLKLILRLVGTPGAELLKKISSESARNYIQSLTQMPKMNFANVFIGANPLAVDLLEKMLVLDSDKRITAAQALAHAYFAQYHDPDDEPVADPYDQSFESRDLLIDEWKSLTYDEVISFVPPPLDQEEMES

PBMC = assay: Antiinflammatory activity in human PBMC assessed as inhibition of LPS-induced TNFalpha production after 6 hrs by ELISA; format: functional, cell-based
[2] = Aqueous solubility of the compound at pH 6.5; format: physicochemical; conditions: buffer
LIM domain kinase 1 = LIM domain kinase 1 (Homo sapiens, UniProt P53667); assay: Inhibition of LIMK1
Sequence of LIM domain kinase 1 (P53667 whole entry, the tested form may be a part): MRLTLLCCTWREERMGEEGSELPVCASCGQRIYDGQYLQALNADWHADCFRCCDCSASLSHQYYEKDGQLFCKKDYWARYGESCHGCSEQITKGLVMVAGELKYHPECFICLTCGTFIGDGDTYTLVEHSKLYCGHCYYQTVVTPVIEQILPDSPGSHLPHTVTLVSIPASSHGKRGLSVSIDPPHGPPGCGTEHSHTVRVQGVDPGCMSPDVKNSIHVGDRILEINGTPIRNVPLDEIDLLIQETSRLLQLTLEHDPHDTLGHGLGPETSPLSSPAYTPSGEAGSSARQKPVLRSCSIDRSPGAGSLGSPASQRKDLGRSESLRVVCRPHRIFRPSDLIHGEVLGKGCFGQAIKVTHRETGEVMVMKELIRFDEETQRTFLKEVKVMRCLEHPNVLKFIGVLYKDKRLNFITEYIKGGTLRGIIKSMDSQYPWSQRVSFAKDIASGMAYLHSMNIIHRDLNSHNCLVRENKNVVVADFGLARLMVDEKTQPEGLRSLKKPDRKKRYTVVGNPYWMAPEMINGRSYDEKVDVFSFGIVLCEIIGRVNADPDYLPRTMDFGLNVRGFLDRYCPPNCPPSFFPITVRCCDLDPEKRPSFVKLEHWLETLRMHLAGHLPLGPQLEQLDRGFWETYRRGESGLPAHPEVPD

LIM domain kinase 2 = LIM domain kinase 2 (Homo sapiens, UniProt P53671); assay: Inhibition of LIMK2
Sequence of LIM domain kinase 2 (P53671 whole entry, the tested form may be a part): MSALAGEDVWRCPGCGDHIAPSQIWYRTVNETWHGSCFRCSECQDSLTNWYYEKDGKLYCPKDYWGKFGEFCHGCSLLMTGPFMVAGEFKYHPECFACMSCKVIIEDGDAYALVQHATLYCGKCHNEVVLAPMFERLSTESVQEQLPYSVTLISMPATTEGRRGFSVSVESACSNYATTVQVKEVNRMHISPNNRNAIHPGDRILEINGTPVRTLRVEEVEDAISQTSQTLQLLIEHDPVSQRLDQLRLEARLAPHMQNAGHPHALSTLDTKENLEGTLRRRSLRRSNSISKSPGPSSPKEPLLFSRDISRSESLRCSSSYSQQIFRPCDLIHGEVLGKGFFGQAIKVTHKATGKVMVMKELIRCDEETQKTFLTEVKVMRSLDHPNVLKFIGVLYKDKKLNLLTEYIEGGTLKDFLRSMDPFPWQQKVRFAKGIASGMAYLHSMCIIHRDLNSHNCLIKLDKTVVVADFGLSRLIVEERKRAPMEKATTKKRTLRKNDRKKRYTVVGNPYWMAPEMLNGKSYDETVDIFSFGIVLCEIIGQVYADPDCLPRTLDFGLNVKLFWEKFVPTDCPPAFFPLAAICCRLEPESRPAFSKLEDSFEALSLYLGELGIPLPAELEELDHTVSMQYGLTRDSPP

[3] = Selectivity ratio of IC50 for p38alpha to IC50 for LIMK1
[4] = Selectivity ratio of IC50 for p38alpha to IC50 for LIMK2
[5] = molecular target: Tyrosine-protein kinase ABL1 (Homo sapiens) (UniProt P00519); assay: Inhibition of ABL1 at 10 uM relative to control
[6] = molecular target: 5'-AMP-activated protein kinase catalytic subunit alpha-1 (Homo sapiens) (UniProt Q13131); assay: Inhibition of AMPKA1 at 10 uM relative to control
Sequence of 5'-AMP-activated protein kinase catalytic subunit alpha-1 (Homo sapiens) (Q13131 whole entry, looked up): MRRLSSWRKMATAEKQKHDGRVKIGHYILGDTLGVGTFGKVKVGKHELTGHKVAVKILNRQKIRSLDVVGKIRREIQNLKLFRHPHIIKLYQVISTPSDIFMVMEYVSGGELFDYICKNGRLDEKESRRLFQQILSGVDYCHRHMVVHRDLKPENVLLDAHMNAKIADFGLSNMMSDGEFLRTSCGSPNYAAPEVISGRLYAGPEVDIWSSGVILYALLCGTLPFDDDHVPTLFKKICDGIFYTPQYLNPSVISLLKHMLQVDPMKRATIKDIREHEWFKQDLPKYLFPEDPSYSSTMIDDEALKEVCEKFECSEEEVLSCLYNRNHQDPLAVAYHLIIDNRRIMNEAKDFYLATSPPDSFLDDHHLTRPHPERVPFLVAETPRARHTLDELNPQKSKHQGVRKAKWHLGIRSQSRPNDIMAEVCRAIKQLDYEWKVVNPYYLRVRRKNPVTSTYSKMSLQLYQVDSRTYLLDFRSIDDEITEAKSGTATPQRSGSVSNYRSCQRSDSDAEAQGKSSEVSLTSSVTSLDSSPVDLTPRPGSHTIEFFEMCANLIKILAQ

[7] = molecular target: Aurora kinase A (Homo sapiens) (UniProt O14965); assay: Inhibition of aurora A at 10 uM relative to control
[8] = molecular target: Aurora kinase C (Homo sapiens) (UniProt Q9UQB9); assay: Inhibition of aurora C at 10 uM relative to control
[9] = molecular target: Calcium/calmodulin-dependent protein kinase type 1 (Homo sapiens) (UniProt Q14012); assay: Inhibition of CAMK1A at 10 uM relative to control
[10] = molecular target: Calcium/calmodulin-dependent protein kinase type 1D (Homo sapiens) (UniProt Q8IU85); assay: Inhibition of CAMK1D at 10 uM relative to control
Sequence of Calcium/calmodulin-dependent protein kinase type 1D (Homo sapiens) (Q8IU85 whole entry, looked up): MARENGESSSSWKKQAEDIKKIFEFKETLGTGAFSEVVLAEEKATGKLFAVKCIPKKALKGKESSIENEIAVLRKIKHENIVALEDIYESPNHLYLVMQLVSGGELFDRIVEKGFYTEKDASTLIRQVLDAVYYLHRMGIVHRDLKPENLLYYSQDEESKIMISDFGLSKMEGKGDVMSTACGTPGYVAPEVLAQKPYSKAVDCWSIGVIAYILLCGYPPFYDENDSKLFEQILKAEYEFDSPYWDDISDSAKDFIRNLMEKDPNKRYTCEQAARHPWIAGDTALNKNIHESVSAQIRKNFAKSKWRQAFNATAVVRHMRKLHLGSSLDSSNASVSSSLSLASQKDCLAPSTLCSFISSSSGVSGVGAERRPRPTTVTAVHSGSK

[11] = molecular target: Cyclin-dependent kinase 2 (Homo sapiens) (UniProt P24941); assay: Inhibition of CDK2 at 10 uM relative to control
[12] = molecular target: Casein kinase I isoform epsilon (Homo sapiens) (UniProt P49674); assay: Inhibition of CK1E at 10 uM relative to control
[13] = molecular target: Dual specificity protein kinase CLK1 (Homo sapiens) (UniProt P49759); assay: Inhibition of CLK1 at 10 uM relative to control
Sequence of Dual specificity protein kinase CLK1 (Homo sapiens) (P49759 whole entry, looked up): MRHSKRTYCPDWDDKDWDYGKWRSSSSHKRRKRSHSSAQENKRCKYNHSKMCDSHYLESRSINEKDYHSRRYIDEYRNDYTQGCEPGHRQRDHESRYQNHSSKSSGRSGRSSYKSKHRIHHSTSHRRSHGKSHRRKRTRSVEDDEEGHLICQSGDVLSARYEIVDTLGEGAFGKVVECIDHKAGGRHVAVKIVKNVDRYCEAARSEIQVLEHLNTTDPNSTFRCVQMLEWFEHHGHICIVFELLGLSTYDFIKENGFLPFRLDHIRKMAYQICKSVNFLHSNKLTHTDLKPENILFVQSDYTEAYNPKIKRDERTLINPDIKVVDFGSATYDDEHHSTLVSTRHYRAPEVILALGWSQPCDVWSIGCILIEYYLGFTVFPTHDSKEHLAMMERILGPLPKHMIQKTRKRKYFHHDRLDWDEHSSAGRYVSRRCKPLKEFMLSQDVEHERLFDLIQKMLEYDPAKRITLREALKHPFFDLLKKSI

[14] = molecular target: Tyrosine-protein kinase CSK (Homo sapiens) (UniProt P41240); assay: Inhibition of CSK at 10 uM relative to control
[15] = molecular target: Death-associated protein kinase 2 (Homo sapiens) (UniProt Q9UIK4); assay: Inhibition of DAPK2 at 10 uM relative to control
[16] = molecular target: Epidermal growth factor receptor (Homo sapiens) (UniProt P00533); assay: Inhibition of EGFR at 10 uM relative to control
[17] = molecular target: Ephrin type-A receptor 2 (Homo sapiens) (UniProt P29317); assay: Inhibition of EPHA2 at 10 uM relative to control
Sequence of Ephrin type-A receptor 2 (Homo sapiens) (P29317 whole entry): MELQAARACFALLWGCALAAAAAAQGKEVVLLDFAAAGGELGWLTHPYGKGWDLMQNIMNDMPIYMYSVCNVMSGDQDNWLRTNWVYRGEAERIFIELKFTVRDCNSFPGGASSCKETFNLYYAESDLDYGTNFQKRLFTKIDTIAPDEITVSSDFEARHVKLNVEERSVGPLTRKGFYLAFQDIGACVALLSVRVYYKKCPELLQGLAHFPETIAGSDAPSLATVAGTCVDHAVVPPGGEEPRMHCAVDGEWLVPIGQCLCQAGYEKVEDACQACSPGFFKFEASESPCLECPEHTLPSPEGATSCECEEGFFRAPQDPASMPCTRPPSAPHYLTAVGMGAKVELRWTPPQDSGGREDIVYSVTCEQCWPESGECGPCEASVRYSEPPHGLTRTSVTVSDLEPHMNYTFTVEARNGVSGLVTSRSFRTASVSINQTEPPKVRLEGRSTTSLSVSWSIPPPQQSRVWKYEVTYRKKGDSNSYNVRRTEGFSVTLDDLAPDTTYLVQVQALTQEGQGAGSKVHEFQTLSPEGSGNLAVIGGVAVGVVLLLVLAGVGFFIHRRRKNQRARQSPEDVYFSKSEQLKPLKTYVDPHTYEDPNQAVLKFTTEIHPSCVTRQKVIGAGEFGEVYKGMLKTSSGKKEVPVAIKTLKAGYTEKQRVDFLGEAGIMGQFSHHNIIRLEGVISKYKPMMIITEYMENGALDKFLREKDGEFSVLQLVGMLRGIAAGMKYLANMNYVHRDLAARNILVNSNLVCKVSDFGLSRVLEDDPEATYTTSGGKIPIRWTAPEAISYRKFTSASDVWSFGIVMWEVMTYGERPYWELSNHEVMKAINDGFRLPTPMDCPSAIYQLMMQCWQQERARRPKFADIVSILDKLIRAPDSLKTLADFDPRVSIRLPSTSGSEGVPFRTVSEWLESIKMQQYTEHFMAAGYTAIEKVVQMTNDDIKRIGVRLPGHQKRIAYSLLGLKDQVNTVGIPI

[18] = molecular target: Ephrin type-B receptor 4 (Homo sapiens) (UniProt P54760); assay: Inhibition of EPHB4 at 10 uM relative to control
[19] = molecular target: Fibroblast growth factor receptor 1 (Homo sapiens) (UniProt P11362); assay: Inhibition of FGF1R at 10 uM relative to control
[20] = molecular target: Receptor-type tyrosine-protein kinase FLT3 (Homo sapiens) (UniProt P36888); assay: Inhibition of FLT3 at 10 uM relative to control
[21] = molecular target: Cyclin-G-associated kinase (Homo sapiens) (UniProt O14976); assay: Inhibition of GAK at 10 uM relative to control
[22] = molecular target: Insulin-like growth factor 1 receptor (Homo sapiens) (UniProt P08069); assay: Inhibition of IGF1R at 10 uM relative to control
[23] = molecular target: Insulin receptor (Homo sapiens) (UniProt P06213); assay: Inhibition of INSR at 10 uM relative to control
[24] = molecular target: Vascular endothelial growth factor receptor 2 (Homo sapiens) (UniProt P35968); assay: Inhibition of KDR at 10 uM relative to control
[25] = molecular target: Mitogen-activated protein kinase kinase kinase 4 (Homo sapiens) (UniProt Q9Y6R4); assay: Inhibition of MAP3K4 at 10 uM relative to control
[26] = molecular target: Serine/threonine-protein kinase MARK2 (Homo sapiens) (UniProt Q7KZI7); assay: Inhibition of MARK2 at 10 uM relative to control
[27] = molecular target: MAP kinase-interacting serine/threonine-protein kinase 2 (Homo sapiens) (UniProt Q9HBH9); assay: Inhibition of MNK2 at 10 uM relative to control
[28] = molecular target: Serine/threonine-protein kinase Nek2 (Homo sapiens) (UniProt P51955); assay: Inhibition of NEK2 at 10 uM relative to control
[29] = molecular target: Serine/threonine-protein kinase PAK 1 (Homo sapiens) (UniProt Q13153); assay: Inhibition of PAK1 at 10 uM relative to control
[30] = molecular target: Serine/threonine-protein kinase PAK 4 (Homo sapiens) (UniProt O96013); assay: Inhibition of PAK4 at 10 uM relative to control
[31] = molecular target: Serine/threonine-protein kinase PAK 5 (Homo sapiens) (UniProt Q9P286); assay: Inhibition of PAK5 at 10 uM relative to control
Sequence of Serine/threonine-protein kinase PAK 5 (Homo sapiens) (Q9P286 whole entry, looked up, canonical isoform): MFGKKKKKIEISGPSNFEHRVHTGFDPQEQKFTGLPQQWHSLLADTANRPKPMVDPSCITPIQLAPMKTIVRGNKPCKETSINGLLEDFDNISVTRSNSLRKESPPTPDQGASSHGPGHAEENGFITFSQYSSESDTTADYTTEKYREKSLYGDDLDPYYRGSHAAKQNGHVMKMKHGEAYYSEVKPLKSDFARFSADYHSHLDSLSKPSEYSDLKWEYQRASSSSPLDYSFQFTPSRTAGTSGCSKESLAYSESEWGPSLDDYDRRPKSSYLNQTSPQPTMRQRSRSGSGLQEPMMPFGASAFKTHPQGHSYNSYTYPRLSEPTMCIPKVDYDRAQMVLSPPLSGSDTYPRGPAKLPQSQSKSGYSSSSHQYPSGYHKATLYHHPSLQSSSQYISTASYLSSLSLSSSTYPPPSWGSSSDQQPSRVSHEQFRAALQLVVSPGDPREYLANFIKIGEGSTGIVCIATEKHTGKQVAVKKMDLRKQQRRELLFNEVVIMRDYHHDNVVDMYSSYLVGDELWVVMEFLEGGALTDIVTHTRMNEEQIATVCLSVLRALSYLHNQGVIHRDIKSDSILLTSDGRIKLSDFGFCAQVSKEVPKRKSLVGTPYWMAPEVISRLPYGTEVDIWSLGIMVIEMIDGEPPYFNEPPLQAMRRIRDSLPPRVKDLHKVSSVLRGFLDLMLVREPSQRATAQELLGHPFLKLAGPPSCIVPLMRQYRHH

[32] = molecular target: Phosphorylase b kinase gamma catalytic chain, skeletal muscle/heart isoform (Homo sapiens) (UniProt Q16816); assay: Inhibition of PHKG1 at 10 uM relative to control
[33] = molecular target: Serine/threonine-protein kinase pim-1 (Homo sapiens) (UniProt P11309); assay: Inhibition of PIM1 at 10 uM relative to control
[34] = molecular target: Proto-oncogene tyrosine-protein kinase Src (Homo sapiens) (UniProt P12931); assay: Inhibition of SRC at 10 uM relative to control
[35] = molecular target: Serine/threonine-protein kinase 16 (Homo sapiens) (UniProt O75716); assay: Inhibition of STK16 at 10 uM relative to control
[36] = molecular target: Tyrosine-protein kinase SYK (Homo sapiens) (UniProt P43405); assay: Inhibition of SYK at 10 uM relative to control
[37] = molecular target: Angiopoietin-1 receptor (Homo sapiens) (UniProt Q02763); assay: Inhibition of TIE2 at 10 uM relative to control
[38] = molecular target: High affinity nerve growth factor receptor (Homo sapiens) (UniProt P04629); assay: Inhibition of TRKA at 10 uM relative to control
[39] = molecular target: Mitogen-activated protein kinase 8 (Homo sapiens) (UniProt P45983); assay: Inhibition of JNK1 at 10 uM relative to control
[40] = molecular target: Mitogen-activated protein kinase 10 (Homo sapiens) (UniProt P53779); assay: Inhibition of JNK3 at 10 uM relative to control
[41] = molecular target: Mast/stem cell growth factor receptor Kit (Homo sapiens) (UniProt P10721); assay: Inhibition of KIT at 10 uM relative to control
[42] = molecular target: Platelet-derived growth factor receptor beta (Homo sapiens) (UniProt P09619); assay: Inhibition of PDGRB at 10 uM relative to control
[43] = molecular target: Myosin light chain kinase 2, skeletal/cardiac muscle (Homo sapiens) (UniProt Q9H1R3); assay: Inhibition of skeletal muscle MLCK at 10 uM relative to control; conditions: Muscle tissue

CCCNc1ncc(-c2cc(-c3ccccc3F)nc(-c3ccccn3)n2)s1
IC50 [1]: 0.052 µM
IC50 (PBMC): 0.062 µM

CCCNc1ncc(-c2cc(-c3ccccc3F)nc(C)n2)s1
IC50 [1]: 0.52 µM

CCCNc1ncc(-c2cc(-c3ccccc3Cl)nc(-c3ccccn3)n2)s1
IC50 [1]: 0.022 µM
IC50 (PBMC): 0.017 µM

CC[C@H](C)Nc1ncc(-c2cc(-c3ccccc3Cl)nc(-c3ccccn3)n2)s1
IC50 [1]: 0.008 µM
IC50 (PBMC): 0.031 µM
solubility [2]: < 5 ng/mL

CCCNc1ncc(-c2cc(-c3ccccc3F)nc(N)n2)s1
IC50 [1]: 0.225 µM

CC(C)Nc1ncc(-c2cc(-c3ccccc3Cl)nc(NCCO)n2)s1
IC50 [1]: 0.008 µM
IC50 (PBMC): 0.008 µM

CC(C)Nc1ncc(-c2ccnc(-c3ccccc3Cl)n2)s1
IC50 [1]: 0.223 µM

Clc1ccccc1-c1cc(-c2cnc(NC3CC3)s2)nc(-c2ccccn2)n1
IC50 [1]: 0.017 µM
IC50 (PBMC): 0.022 µM

CC(C)Nc1ncc(-c2cc(-c3ccccc3Cl)nc(N(C)C)n2)s1
IC50 [1]: 0.573 µM

CC[C@@H](C)Nc1ncc(-c2cc(-c3ccccc3Cl)nc(-c3ccccn3)n2)s1
IC50 [1]: 0.005 µM
IC50 (PBMC): 0.013 µM
solubility [2]: < 5 ng/mL

CC(C)Nc1ncc(-c2cc(-c3ccccc3Cl)nc(-c3ccccn3)n2)s1
IC50 [1]: 0.004 µM
IC50 (PBMC): 0.021 µM
IC50 (LIM domain kinase 1): 0.252 µM
IC50 (LIM domain kinase 2): 0.362 µM
solubility [2]: < 5 ng/mL

CCCNc1ncc(-c2ccnc(-c3ccccn3)n2)s1
IC50 [1]: 0.314 µM

CC(C)Nc1ncc(-c2cc(-c3ccccc3Cl)nc(NCC(O)CO)n2)s1 (stereo not given)
IC50 [1]: 0.006 µM
IC50 (PBMC): 0.011 µM

CCCNc1ncc(-c2cc(-c3ccccc3F)nc(C3CC3)n2)s1
IC50 [1]: > 1 µM

CC(C)Nc1ncc(-c2cc(-c3ccccc3Cl)ncn2)s1
IC50 [1]: 0.046 µM
IC50 (PBMC): 0.031 µM

Clc1ccccc1-c1cc(-c2cnc(NC3CCC3)s2)nc(-c2ccccn2)n1
IC50 [1]: 0.016 µM
IC50 (PBMC): 0.028 µM

CC(C)Nc1ncc(-c2cc(-c3ccccc3Cl)nc(N)n2)s1
IC50 [1]: 0.016 µM
IC50 (PBMC): > 0.25 µM

CCCNc1ncc(-c2ccnc(C3CC3)n2)s1
IC50 [1]: > 1 µM

CCCNc1ncc(-c2cc(-c3ccccc3OCC)nc(-c3ccccn3)n2)s1
IC50 [1]: 0.859 µM

CC(C)Nc1ncc(-c2cc(-c3ccccc3CNC(=O)NC3CC3)nc(NCCN(C)C)n2)s1
IC50 [1]: 0.016 µM
IC50 (PBMC): 0.011 µM

CCCNc1ncc(-c2cc(-c3ccc(F)cc3Cl)nc(-c3ccccn3)n2)s1
IC50 [1]: 0.042 µM
IC50 (PBMC): 0.017 µM

CNC(=O)NCc1ccccc1-c1cc(-c2cnc(NC(C)C)s2)nc(NCCN(C)C)n1
IC50 [1]: 0.002 µM
IC50 (PBMC): 0.012 µM

CC(C)Nc1ncc(-c2cc(-c3ccccc3Cl)nc(NCCN(C)C)n2)s1
IC50 [1]: 0.005 µM
IC50 (PBMC): 0.001 µM
IC50 (LIM domain kinase 1): 0.00401 µM
IC50 (LIM domain kinase 2): 0.00305 µM
solubility [2]: 994 ng/mL (≈ 2.38 µM)

CCCNc1ncc(-c2cc(-c3ccc(F)cc3)nc(-c3ccccn3)n2)s1
IC50 [1]: 0.052 µM

CCCNc1ncc(-c2ccnc(-c3ccccc3F)n2)s1
IC50 [1]: > 30 µM

Nc1ncc(-c2cc(-c3ccccc3Cl)nc(-c3ccccn3)n2)s1
IC50 [1]: 0.114 µM

CCNC(=O)NCc1ccccc1-c1cc(-c2cnc(NC(C)C)s2)nc(NCCN(C)C)n1
IC50 (PBMC): 0.003 µM
solubility [2]: 5940 ng/mL (≈ 12.3 µM)
Selectivity ratio [3]: > 10000
Selectivity ratio [4]: > 10000
inhibition [5]: inactive
inhibition [6]: inactive
inhibition [7]: inactive
inhibition [8]: inactive
inhibition [9]: inactive
inhibition [10]: inactive
inhibition [11]: inactive
inhibition [12]: inactive
inhibition [13]: inactive
inhibition [14]: inactive
inhibition [15]: inactive
inhibition [16]: inactive
inhibition [17]: inactive
inhibition [18]: inactive
inhibition [19]: inactive
inhibition [20]: inactive
inhibition [21]: inactive
inhibition [22]: inactive
inhibition [23]: inactive
inhibition [24]: inactive
inhibition [25]: inactive
inhibition [26]: inactive
inhibition [27]: inactive
inhibition [28]: inactive
inhibition [29]: inactive
inhibition [30]: inactive
inhibition [31]: inactive
inhibition [32]: inactive
inhibition [33]: inactive
inhibition [34]: inactive
inhibition [35]: inactive
inhibition [36]: inactive
inhibition [37]: inactive
inhibition [38]: inactive
inhibition [39]: 24.9%
inhibition [40]: 0.2%
inhibition [41]: 14.5%
inhibition [42]: 11.3%
inhibition [43]: inactive

CCCNc1ncc(-c2cc(-c3ccc(OCC)cc3Cl)nc(-c3ccccn3)n2)s1
IC50 [1]: 3.94 µM

CCNc1ncc(-c2cc(-c3ccccc3Cl)nc(-c3ccccn3)n2)s1
IC50 [1]: 0.017 µM
IC50 (PBMC): 0.119 µM
